From patent US20090082429A1, “Antimicrobial Compositions and Methods of Use” (priority 2003, published 2009)
Values after ≈ are worked out from the molar mass of the structure shown. “Also recorded” adds a separate entry of the source. Read-outs that look alike come from different tables or passages of the source. Each block holds one compound with its values, some of them ahead of it.

How the values were obtained:
[1] = test system: staphylococcal; conditions: stated or reported, no test in the patent; cited from earlier work
[2] = test system: Erythrocytes from defibrinated Horse blood; experiment: Erythrocyte haemolysis; type: cell-based; conditions: 10 min
Experimental: Erythrocyte haemolysis: Erythrocytes from defibrinated Horse blood (Oxoid) were collected by centrifugation (6,000×g, 3 min) and washed three to four times in 10 mM Tris-HCI (pH 7.4) containing 0.9% NaCI. The erythrocytes were resuspended to 1% in the wash buffer and 200 microliter of cells was added to 1300 microliter of buffer containing the test compound. The sample was mixed gently for 10 min at room temperature and the intact erythrocytes were removed by centrifugation (6,000×g, 3 min). Haemolysis was evaluated by measuring the absorbance of the supernatant at 540 nm. Cells were added to buffer containing 0.5% NH4OH to give an indication of 100% lysis. The results were expressed as a percentage of absorbance reading for 100% lysis. Buffer containing only washed erythrocytes was used to assess the extent of lysis in the absence of the test compound.
Hemolysis: The amount hemoglobin released from horse blood erythrocytes after exposure to the compounds for 10 min was used to assess the effect of the compounds on eukaryotic membranes.

[3] = test system: EMRSA-16; experiment: Bacterial membrane damage (BacLight kit, SYTO 9/propidium iodide) and CFU after 10 min exposure; type: cell-based, S. aureus; conditions: for Membrane Effect % Control (BacLight) / Delta Log 10 (CFU/ml): 10 min exposure; for Delta Log 10 (CFU/ml): Log10 decrease vs control
Experimental: Bacterial membrane damage: EMRSA-16 was grown overnight in Mueller-Hinton broth at 37° C. The overnight culture was diluted 1:40 into fresh pre-warmed Mueller-Hinton broth and the diluted culture incubated at 37° C., with aeration (200 rpm), until the optical density at 600 nm (OD600) reached 0.7-0.8. The cells were recovered by centrifugation (10.000×g for 10 min), washed once with filtered-sterilized water, and resuspended to 1:10 the original volume in filter-sterilized water. The culture was further diluted 1:20 into water containing ethanol (1 vol %; the solvent was used to dissolve the compounds) or water containing the catechin. The cells were exposed to the compounds for 10 min (at room temperature and gentle shaking), after which a sample was removed for CFU determination and the remainder of the cells were recovered by centrifugation (10.000×g for 10 min). The cell pellet was washed once with water and then resuspended to an OD670 of 0.15.
Damage to the bacterial cytoplasmic membrane was determined with the reagents (SYTO 9 and propidium iodide) contained in the BacLight kit from Molecular Probes Europe BV (Leiden, The Netherlands). An equal mixture (4.5 microliter each) of SYTO 9 dye and propidium iodide was added to 3 ml of sample in a cuvette and the sample mixed by inversion of the cuvette three times. The sample was maintained in the dark for 15 min and the fluorescence of the two dyes was determined with a spectrofluorometer (Jacso FP-750). Both dyes were excited with a wavelength of 485 nm and the emission of SYTO 9 was read at 530 nm (Em1) and propidium iodide was read at 645 nm (Em2). The ratio of SYTO 9 to propidium iodide emissions (R=Em1/Em2) was expressed as a percentage of the control (BacLight value=[Rsample/Rcontrol]×100). The sample removed for CFU determination was serially diluted in 0.1M phosphate-buffered saline (pH 7.4) then plated onto nutrient agar. The number of colonies on the plates was recorded after 24 h incubation at 37° C. and the results expressed as a Log10 decrease in CFU/ml compared to the control sample.
Staphylococcal membrane damage: Damage to the staphylococcal cytoplasmic membrane was assessed by use of the BacLight kit (Molecular Probes Inc.). The kit makes use of two nucleic acid stains, SYTO-9 and propidium iodide, with different spectral properties and abilities to penetrate intact bacterial membranes. SYTO-9 penetrates both intact and damaged membranes while propidium iodide only penetrates damaged membranes. Cells with intact membranes stain fluorescent green while cells with damaged membranes stain fluorescent red. The ratios of green to red fluorescence, for EMRSA-16 exposed to test compounds, are expressed as a percentage of the control and are given in the table below.

[4] = test system: S. aureus; experiment: MIC testing, summary over the three strains tested; type: cell-based
From the text: (§1) Reagents and bacterial strains: 3-O-(−)-epicatechingallate and (+)-catechin were provided by the Tokyo Food Techno Co., Tokyo, Japan. Octanoic acid and oxacillin were purchased from Sigma (Poole, United Kingdom). The acyl-(+)-catechin derivatives and octanoyl-(−)-epicatechin were synthesised as outlined below. S. aureus BB568 (COL-type strain that carries mecA and pT181) and BB551 (methicillin-sensitive) were provided by Professor B. Berger-Baechi. EMRSA-15 and EMRSA-16 were clinical isolates from the Royal Free Hospital, London. Strains of S. aureus can be considered resistant to methicillin in which growth occurs in the presence of 8 microgram/ml methicillin (National Committee for Clinical Laboratory Standards, 1990—Methods for dilution antimicrobial susceptibility tests for bacteria that grow aerobically (second edition). Document M7-A2. NCCLS, Villanova, Pa., U.S.A.).
(§2) S. aureus ATCC29213 was used as the standard.

[5] = test system: S. aureus BB551; experiment: Electron microscopy, effect on cell wall morphology; type: cell-based; conditions: grown overnight in the presence of the compound; electron micrograph
Experimental: Electron microscopy: S. aureus BB551 was grown overnight at 37° C. in Mueller-Hinton broth in the absence and presence of either epicatechin-(−)-gallate or octanoyl-(+)-catechin. The cells were recovered by centrifugation and washed once in 0.1M phosphate-buffered saline, pH 7.4. Cells were fixed in 1.5% glutaraldehyde for at least 2 h at room temperature, treated with osmium tetroxide and embedded in epoxy resin. Sectioning and staining with uranyl acetate was followed by Reynolds' lead citrate. The ultrathin sections were viewed and photographed using a Philips 201 transmission electron microscope.

[6] = test system: EMRSA-15; experiment: Minimum inhibitory concentration (MIC) testing in 96-well microtitre trays; type: cell-based, S. aureus
From the text: as §1, §2

[7] = test system: EMRSA-16; experiment: as above; type: cell-based, S. aureus
From the text: as §1, §2

[8] = test system: S. aureus BB568; experiment: as above; type: cell-based
From the text: as §1, §2

[9] = test system: EMRSA-16; experiment: Effect on bacterial growth (viable counts, CFU/ml); type: cell-based, S. aureus; conditions: for reduction in cell numbers: over six hours
Experimental: Effect on bacterial growth: EMRSA-16 was grown overnight in Mueller-Hinton broth at 37° C. The overnight culture as diluted 1:400 into 50 ml volumes of pre-warmed (37° C.) Mueller-Hinton broth containing various concentrations of contemplated compounds. The control flask contained ethanol (1 vol %). The flasks were incubated at 37° C. with aeration (200 rpm). At two-hour intervals samples were withdrawn from the flasks, serially diluted in 0.1M phosphate-buffered saline (pH 7.4) solutions, and plated onto nutrient agar (Oxoid). The number of colonies was recorded at 24 h incubation at 37° C. and expressed as the number of CFU/ml.

[10] = EMRSA-15; oxacillin MIC in the presence of the compound (tested at 0.25×MIC)
[11] = Staphylococcus aureus, 24 h, read-out: MIC Catechin
[12] = EMRSA-16; oxacillin MIC in the presence of the compound (tested at 0.25×MIC)
[13] = BB568; oxacillin MIC in the presence of the compound (tested at 0.25×MIC)
[14] = Staphylococcus aureus, 24 h; read-out: MIC Catechin
[15] = EMRSA-15; MIC of the compound itself; 35° C., 24 h
[16] = EMRSA-16; MIC of the compound itself; 35° C., 24 h
[17] = BB568; MIC of the compound itself; 35° C., 24 h

Structure (SMILES): O=C(O)c1cc(O)c(O)c(O)c1 [Gallic acid]
anti-staphylococcal activity [1]: no anti-staphylococcal activity

Structure (SMILES): O=C(O[C@@H]1Cc2c(O)cc(O)cc2O[C@@H]1c1ccc(O)c(O)c1)c1cc(O)c(O)c(O)c1 [(−)-epicatechingallate, 3-O-(−)-epicatechingallate]
hemolysis ([2]; 4×MIC): did not give rise to hemolysis | hemolysis ([2]; 8×MIC): 21% | % Hemolysis ([2]; 512 mcg/ml): 6% | % Hemolysis ([2]; 1024 mcg/ml): 21% | effect on cell viability ([3]; 4× and 8×MIC, 10 min): little effect on cell viability | membrane permeability ([3]; 4×MIC): 48% | membrane permeability ([3]; 8×MIC): 64% | Membrane Effect % Control (BacLight) ([3]; 512 mcg/ml): 48% | Delta Log 10 (CFU/ml) ([3]; 512 mcg/ml): 0.0 | Membrane Effect % Control (BacLight) ([3]; 1024 mcg/ml): 64% | Delta Log 10 (CFU/ml) ([3]; 1024 mcg/ml): 0.1 | MIC ([4]; Staphylococcus aureus): 64 to 128 µg/mL (≈ 145 to 289 µM) | direct antistaphylococcal activity relative to (+)-catechin ([4]; greater activity than (+)-catechin): at least 4 fold | effect on cell wall morphology [5]: pseudomulticellular aggregates with increased cell wall thickening | MIC Oxacillin [6, 10]: 1 MICROGRAM/ML | MIC [6, 11]: 128 µg/mL (≈ 289 µM) | MIC Oxacillin [7, 12]: 1 MICROGRAM/ML | MIC [7, 11]: 128 µg/mL (≈ 289 µM) | MIC Oxacillin [8, 13]: <1 MICROGRAM/ML | MIC Oxacillin ([8]; BB568; oxacillin MIC in the presence of the compound (tested at 0.25×MIC); listed as epicatechin gallate): less than 1 MICROGRAM/ML | MIC ([8]; Staphylococcus aureus, BB568, 24 h, read-out: MIC Catechin): 128 µg/mL (≈ 289 µM) | reduction in cell numbers ([9]; 512 microgram/ml): 0.3 Log10 | reduction in cell numbers ([9]; 1024 microgram/ml): 0.85 Log10 | reduction in CFU/ml ([9]; 1024 microgram/ml, over the 24 h period): 5 Log10 | reduction in viable cell numbers ([9]; over the first two hour period, even at 8×MIC): did not give rise to a large reduction in viable cell numbers

capacity to reduce the oxacillin MIC ([4]; tested at 0.25×MIC): two-fold | MIC Oxacillin [6, 10]: 32 MICROGRAM/ML | MIC [6, 14]: 1020 µg/mL (≈ 7100 µM) | MIC Oxacillin [7, 12]: 512 MICROGRAM/ML | MIC [7, 14]: 1020 µg/mL (≈ 7100 µM) | MIC Oxacillin [8, 13]: 256 MICROGRAM/ML | MIC ([8]; Staphylococcus aureus, BB568, 24 h; read-out: MIC Catechin): 1020 µg/mL (≈ 7100 µM)
Structure (SMILES): CCCCCCCC(=O)O [Octanoic acid]
hemolysis ([2]; 2×MIC): complete hemolysis | % Hemolysis ([2]; horse, 16 mcg/ml, pH 7.4): 3% | % Hemolysis ([2]; horse, 32 mcg/ml, pH 7.4): 4% | % Hemolysis ([2]; horse, 64 mcg/ml, pH 7.4): 100% | concentration giving significant membrane damage [3]: > 1024 microgram/ml | Membrane Effect % Control (BacLight) ([3]; 16 mcg/ml): 74% | Delta Log 10 (CFU/ml) ([3]; 16 mcg/ml): −0.1 | Membrane Effect % Control (BacLight) ([3]; 32 mcg/ml): 75% | Delta Log 10 (CFU/ml) ([3]; 32 mcg/ml): 0.1 | Membrane Effect % Control (BacLight) ([3]; 64 mcg/ml): 2% | Delta Log 10 (CFU/ml) ([3]; 64 mcg/ml): >7.0 | direct activity against S. aureus ([4]; result in words): no direct activity; also recorded: not active

Structure (SMILES): CCCCC/C=C\C/C=C\CCCCCCCC(=O)O [linoleic acid, linoleic acid (C18:8)]
anti-staphylococcal activity [1]: anti-staphylococcal activity

Structure (SMILES): Cc1onc(-c2ccccc2)c1C(=O)N[C@@H]1C(=O)N2[C@@H]1SC(C)(C)[C@@H]2C(=O)O [Oxacillin, oxacillin]
MIC ([6]; Staphylococcus aureus; EMRSA-15; oxacillin alone; read-out: MIC Oxacillin): 32 µg/mL (≈ 79.7 µM) | MIC ([7]; Staphylococcus aureus; EMRSA-16; oxacillin alone; read-out: MIC Oxacillin): 512 µg/mL (≈ 1280 µM) | MIC ([8]; Staphylococcus aureus; BB568; oxacillin alone; read-out: MIC Oxacillin): 256 µg/mL (≈ 638 µM)

Structure (SMILES): CCCCCCCCCC=CCCCCC(=O)O (single isomer, unassigned) [palmitoleic acid isomer (C16:1delta6)]
anti-staphylococcal activity [1]: anti-staphylococcal activity

MIC Catechin [6, 15]: >32 MICROGRAM/ML | MIC Oxacillin [6, 10]: 32 MICROGRAM/ML | MIC Catechin [7, 16]: >32 MICROGRAM/ML | MIC Oxacillin [7, 12]: 512 MICROGRAM/ML | MIC Catechin [8, 17]: 32 MICROGRAM/ML | MIC Oxacillin [8, 13]: 256 MICROGRAM/ML
Structure (SMILES): CCCCCCCCCCCCCCCCCC(=O)O[C@H]1Cc2c(O)cc(O)cc2O[C@@H]1c1ccc(O)c(O)c1 [3-O-staeoryl-(+)-catechin, 3-O-stearoyl-(+)-catechin]

MIC ([4]; the three strains tested): > 256 microgram/ml | MIC Catechin [6, 15]: >256 MICROGRAM/ML | MIC Oxacillin [6, 10]: 32 MICROGRAM/ML | MIC Catechin [7, 16]: >256 MICROGRAM/ML | MIC Oxacillin [7, 12]: 512 MICROGRAM/ML | MIC Catechin [8, 17]: >256 MICROGRAM/ML | MIC Oxacillin [8, 13]: 256 MICROGRAM/ML
Structure (SMILES): Oc1cc(O)c2c(c1)O[C@H](c1ccc(O)c(O)c1)[C@@H](O)C2 [(+)-catechin]

Structure (SMILES): CCCCCCCCCCCC(=O)O [dedecanoic acid, dedecanoic acid (lauric acid) (C12:0)]
anti-staphylococcal activity [1]: anti-staphylococcal activity
